According to article PMC5036131, “Fragment-based discovery of a new family of non-peptidic small-molecule cyclophilin inhibitors with potent antiviral activities” (Nature Communications, 2016):
Read-outs that look alike come from different tables or passages of the source.

Experiments:
[1] = target: T1, CypA (Homo sapiens, UniProt P62937); experiment: PPIase enzyme assay (chymotrypsin-coupled), CypA; assay type: biochemical; settings: 20 °C, mean±s.d.
T1 construct: hexahistidine tag (His-Tag) (C); made in house; host or cells: E. coli C41(DE3)
Procedure: (§1) CypA and CypB proteins carrying a hexahistidine tag (His-Tag) at their carboxy terminus were expressed in E. coli and purified. Briefly, cultures of C41(DE3) cells were grown at 37 °C for 1 h until the culture reached an OD of 0.6 at 600 nm and then induced with 1 mM isopropyl-β-D-thiogalactopyranoside for 4 h at 37 °C (CypA) or overnight at 22 °C (CypB). Cell pellets were resuspended in a lysis buffer 20 mM NaH2PO4 pH 7.8, 300 mM NaCl, 7 mM β-mercaptoethanol, 1 mg ml^−1 lysozyme, 0.1 U μl^−1 desoxyribonuclease and complete protease inhibitor tablets (Roche Diagnostics Corporation, Indianapolis, Indiana). […] The bound protein was eluted in 1 ml fractions with a buffer composed of 20 mM NaH2PO4 pH 7.8, 300 mM NaCl, 250 mM imidazole, 7 mM β-mercaptoethanol and 10% glycerol, monitored by the Bradford colorimetric assay. The purity of each cyclophilin was determined by Coomassie-stained SDS–PAGE analysis.

[2] = target: T2, CypB (Homo sapiens, UniProt P23284); experiment: biochemical; assay type: biochemical
T2 construct: hexahistidine tag (His-Tag) (C); made in house; host or cells: E. coli C41(DE3)
Procedure: as §1

[3] = system: HCV genotype 1b replicon; experiment: microbe, parasite or virus in culture; assay type: cell-based, hepatitis C virus
[4] = system: HCoV-229E; experiment: Anti-human coronavirus 229E activity in MRC5 cells; assay type: cell-based; settings: 72 h, viral cytopathic effect
[5] = in vitro; settings: human
[6] = in vitro; settings: human; remark: listed apart in the source
[7] = target: CypD (Homo sapiens, UniProt P30405, K175I); experiment: PPIase enzyme assay (chymotrypsin-coupled), CypD; settings: for LE (ligand efficiency): Supplementary Figure 1, NMR fragment hits
Procedure: (§2) Cyclophilin PPIase activity was measured at 20 °C by using the standard chymotrypsin-coupled assay. […] Then, 5 μl of 50 mg ml^−1 chymotrypsin in 1 mM HCl was added. […] After a delay from the onset of mixing, the absorbance of p-nitroaniline was followed at 390 nm until the reaction was complete (1 min). The final concentration of LiCl in the assay was 20 mM and TFE was present at a concentration of 4% (v/v). Absorbance readings were collected every 1 s by a spectrophotometer. For inhibition assessment, 5 μl of the tested compound in dimethyl sulfoxide (DMSO) was added to the cyclophilin solution in the assay buffer. […] The percentage inhibition of cyclophilin PPIase activity was calculated from the slopes and the values obtained represent the mean±s.d. of at least two independent measurements.

[8] = target: cyclophilin PPIase activity; experiment: PPIase enzyme assay, cyclophilin not specified; assay type: biochemical, human; settings: compounds lacking the ester function; read-out: cyclophilin inhibition IC50
Procedure: as §2

[9] = system: HIV-IIIb; experiment: Anti-HIV activity in MT4 cells; assay type: cell-based, human immunodeficiency virus; settings: 5 days
[10] = system: MRC5 cells; experiment: Cellular toxicity in MRC5 cells; settings: read-out: MRC5 cells CC50; MRC5 cells
[11] = system: MT4 cells; experiment: Cytotoxicity in uninfected MT4 cells; settings: read-out: MT4 cells CC50
[12] = system: Huh7 cells; experiment: Cellular toxicity in Huh7 replicon cells; settings: read-out: HCV genotype 1b replicon CC50; Huh7 cells
[13] = system: calcineurin; experiment: Calcineurin phosphatase assay; assay type: biochemical; settings: binary complex with CypA, 1:1 molar ratio
Procedure: The inhibition of calcineurin phosphatase activity was measured by measuring the dephosphorylation of p-nitrophenyl phosphate (R&D Systems, Minneapolis, USA), according to the manufacturer’s instructions. […] After p-nitrophenyl phosphate addition, the reaction was run for 35 min at 37 °C. The reaction was terminated by addition of BIOMOL green reagent and OD was measured at 630 nm. The results are the means of three independent experiments performed in duplicate. They are presented as the percentage of calcineurin activity relative to that in the inhibitor-free control.

[14] = system: IL-2 production in Jurkat cells; experiment: Inhibition of IL-2 production in Jurkat cells; assay type: cell-based; settings: stimulated Jurkat cells
Procedure: Duplicate evaluations were included for each test concentration. […] After a 6 h incubation, sample supernatants were collected for measurement of IL-2 production using a commercial kit (Quantikine ELISA, R&D Systems).

[15] = system: mPTP; set-up: method as in Panel M, Ahmed-Belkacem A, et al., manuscript in preparation; settings: as a result of CypD inhibition; ref Panel M, Ahmed-Belkacem A, et al., manuscript in preparation; cited from earlier work
[16] = Cellular toxicity in MRC5 cells; settings: human, MRC-5 cells
[17] = Cellular toxicity in Huh7 replicon cells; settings: human, Huh7 cells with HCV genotype 1b replicon
[18] = Hepatitis C virus, Huh-7, 72 h, read-out: HCV genotype 1b replicon EC50
[19] = PPIase enzyme assay, 20 °C, mean±s.d., read-out: CypB IC50
[20] = read-out: CypD IC50, PPIase enzyme assay, 20 °C, mean±s.d.
[21] = Huh7 cells, 3 days, HCV RNA, read-out: HCV genotype 1b replicon EC50
[22] = wild-type genotype 1b replicon, comparison with mutated replicons (Table 3), read-out: EC50 HCV (WT) subgenomic replicon

T2 sequence (P23284 34-216): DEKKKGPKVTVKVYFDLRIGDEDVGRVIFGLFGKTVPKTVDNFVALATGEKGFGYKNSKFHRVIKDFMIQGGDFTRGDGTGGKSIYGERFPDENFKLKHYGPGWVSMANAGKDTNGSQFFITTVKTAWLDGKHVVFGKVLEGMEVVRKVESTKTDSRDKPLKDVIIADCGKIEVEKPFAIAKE
T1 sequence (P62937 whole entry): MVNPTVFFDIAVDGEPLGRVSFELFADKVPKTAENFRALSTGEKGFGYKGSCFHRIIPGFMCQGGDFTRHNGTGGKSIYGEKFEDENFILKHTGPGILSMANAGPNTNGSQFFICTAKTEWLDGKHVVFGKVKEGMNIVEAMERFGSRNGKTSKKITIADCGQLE
Chain of CypD (P30405 44-207 K175I): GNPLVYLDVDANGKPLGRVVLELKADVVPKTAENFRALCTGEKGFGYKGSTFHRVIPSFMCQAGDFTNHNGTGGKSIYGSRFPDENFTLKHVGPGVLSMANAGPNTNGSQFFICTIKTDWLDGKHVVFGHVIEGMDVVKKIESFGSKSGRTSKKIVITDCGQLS

C/C=C/C[C@@H](C)[C@@H](O)[C@H]1C(=O)N[C@@H](CC)C(=O)N(C)[C@H](C)C(=O)N(CC)[C@@H](C(C)C)C(=O)N[C@@H](C(C)C)C(=O)N(C)[C@@H](CC(C)C)C(=O)N[C@@H](C)C(=O)N[C@H](C)C(=O)N(C)[C@@H](CC(C)C)C(=O)N(C)[C@@H](CC(C)C)C(=O)N(C)[C@@H](C(C)C)C(=O)N1C [Alisporivir, alisporivir, reference compound]
IC50 [1]: 0.07 ± 0.003 µM
IC50 [2]: 0.04 ± 0.012 µM
EC50 [3, 18]: 0.01 ± 0.0007 µM
EC50 ([3]; Hepatitis C virus, Huh-7, read-out: EC50 HCV (WT) subgenomic replicon): 0.04 ± 0.0005 µM
EC50 ([4]; Human coronavirus 229E): 2.6 ± 0.6 µM
CC50 [5]: 32.3 ± 22 µM
CC50 at 72 h [6]: 9.7 ± 2.2 µM
IC50 [7]: 0.03 ± 0.005 µM

Nc1ccc(CNC(=O)NCC(=O)N2CCCC2)cc1 [Compound 23]
IC50 [1]: > 500 µM
IC50 [2, 19]: > 500 µM
IC50 [8]: > 500 µM
IC50 [7, 20]: > 500 µM

COc1ccccc1C1CCCN1C(=O)CNC(=O)NCc1ccc(N)cc1 (stereo not drawn) [Compound 24]
IC50 [1]: 2.8 ± 0.6 µM
IC50 [2, 19]: 1.2 ± 0.1 µM
IC50 [7, 20]: 11.4 ± 3 µM

Nc1ccc(CNC(=O)NCC(=O)N2CCCC2c2ccccc2Cl)cc1 (stereo not drawn) [Compound 25]
IC50 [1]: 3.4 ± 0.7 µM
IC50 [2, 19]: 3.7 ± 1.4 µM
IC50 [7, 20]: 6.2 ± 2.3 µM

Nc1ccc(CNC(=O)NCC(=O)N2CCCC2c2ccccc2Br)cc1 (stereo not drawn) [Compound 26]
EC50 [3, 21]: 6 ± 0.7 µM
EC50 [9]: 3.6 ± 0.8 µM
EC50 [4]: 66.3 ± 24 µM
CC50 [10]: > 100 µM
CC50 [11]: > 53 µM
CC50 [12]: > 100 µM

CSc1ccccc1C1CCCN1C(=O)CNC(=O)NCc1ccc(N)cc1 (stereo not drawn) [Compound 27]
IC50 [1]: 0.4 ± 0.1 µM
EC50 [3, 21]: 2.7 ± 2.5 µM
EC50 [3, 22]: 5.6 ± 0.7 µM
EC50 [9]: 6.8 ± 2.3 µM
EC50 [4]: 34.6 ± 18.3 µM
CC50 [10]: > 100 µM
CC50 [11]: > 53 µM
CC50 [12]: > 100 µM
IC50 [7, 20]: 0.6 ± 0.1 µM

Nc1ccc(CNC(=O)NCC(=O)N2CCCC2c2cccc3ccccc23)cc1 (stereo not drawn) [Compound 28]
IC50 [1]: 1.5 ± 0.5 µM
IC50 [2, 19]: 1.8 ± 0.9 µM
IC50 [7, 20]: 1.4 ± 0.2 µM

CSc1ccccc1C1CCCN1C(=O)C(NC(=O)NCc1ccc(N)cc1)c1ccccc1 (stereo not drawn) [Compound 31]
IC50 [1]: 0.1 ± 0.07 µM
IC50 [2, 19]: 0.08 ± 0.04 µM
EC50 fold higher than the EC50 of alisporivir ([3]; HCV genotype 1b replicon, Huh7 cells): ~40
EC50 [3, 21]: 0.4 ± 0.3 µM
EC50 [3, 22]: 0.3 ± 0.16 µM
EC50 [4]: 44.7 ± 2.2 µM
inhibition of calcineurin phosphatase activity [13]: no inhibition was observed
EC50 [14]: > 20 µM
mPTP opening [15]: inhibits mPTP opening
CC50 [10]: > 100 µM
CC50 [12]: > 100 µM
IC50 [7, 20]: 0.2 ± 0.08 µM

CCOC(=O)CNC(=O)NC1CCc2ccc(N)cc21 (stereo not drawn) [Compound 32]
IC50 [1]: 7.4 ± 6.8 µM
IC50 [2, 19]: 8.7 ± 1.5 µM
EC50 [3, 18]: 8 ± 1.3 µM
EC50 ([4]; Human coronavirus 229E): 71.5 ± 4.3 µM
CC50 at 72 h [16]: > 100 µM
CC50 [17]: > 100 µM
IC50 [7]: 12.8 ± 2.5 µM

COC(=O)CS(=O)(=O)c1ccccc1 [Fragment 1]
% CypD inhibition (%I) at 1 mM [7]: 40%
LE (ligand efficiency) [7]: < 0.29

O=S1(=O)CC=CC1 [Fragment 2]
% CypD inhibition (%I) at 1 mM [7]: 2%

Nc1ccc(C(=O)O)cc1 [Fragment 3]
% CypD inhibition (%I) at 1 mM [7]: 32%
LE (ligand efficiency) [7]: < 0.42

ON=Cc1ccccc1 [Fragment 8]
% CypD inhibition (%I) at 1 mM [7]: 32%
LE (ligand efficiency) [7]: < 0.46

Nc1ccc(S(=O)(=O)NC(=O)c2ccccc2)cc1 [Fragment 9]
% CypD inhibition (%I) at 1 mM [7]: 39%
LE (ligand efficiency) [7]: < 0.24

O=CN1CCCC1 [Fragment 13]
IC50 [1]: > 5000 µM
IC50 [2, 19]: > 5000 µM
IC50 [7, 20]: > 5000 µM

O=C(NC(=O)c1c(F)cccc1Cl)NC1c2ccccc2-c2ccccc21 [TMN-355, reference compound]
IC50 [2, 19]: > 100 µM
EC50 [3, 21]: > 50 µM
CC50 [10]: 1.04 ± 0.46 µM
CC50 [12]: 4.48 ± 2.1 µM
IC50 [7, 20]: > 100 µM
